Results published in ChEMBL document CHEMBL1129416, “Brain-targeted delivery of a leucine-enkephalin analogue by retrometabolic design” (J Med Chem, 1996).

Experiment: The compound was evaluated for opioid receptors binding affinity competition with [3H]diprenorphine.

CC(C)C[C@@H](NC(=O)[C@H](Cc1ccccc1)NC(=O)CNC(=O)[C@@H](C)NC(=O)[C@@H](N)Cc1ccc(O)cc1)C(=O)O [DADLE]
IC50: 36 nM
